Test results published in the supplement of paper PMC10307832.

Experiments:
Experiment in all cases: relative viability (nuclei count vs DMSO), 5 days (fraction); higher = more cells survive
Dasatinib + Vorinostat = compound: Cc1nc(Nc2ncc(C(=O)Nc3c(C)cccc3Cl)s2)cc(N2CCN(CCO)CC2)n1 [Dasatinib] + O=C(CCCCCCC(=O)Nc1ccccc1)NO [Vorinostat] (partner 1 µM)
Method in brief: (§1)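 Dosing by pin tool came one day after lung cancer cell lines were seeded in 1536-well plates, using either one drug or a fixed anchor-drug dose plus five library-drug doses (not always all listed) in √10 steps. After 5 days, nuclei were counted on 4× images. Relative viability is treated-well nuclei count divided by vehicle-well nuclei count, and values are medians of duplicate plates.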

XMD13-2 + Luminespib = compound: C1CC1C(=O)NC2=NNC3=C2C=CC(=C3)C4=CC(=CC=C4)C(=O)NC5CC5 [XMD13-2] + CCNC(=O)c1noc(-c2cc(C(C)C)c(O)cc2O)c1-c1ccc(CN2CCOCC2)cc1 [Luminespib] (partner 0.01 µM)
Method in brief: as §1

XMD13-2 + Tozasertib = compound: C1CC1C(=O)NC2=NNC3=C2C=CC(=C3)C4=CC(=CC=C4)C(=O)NC5CC5 [XMD13-2] + Cc1cc(Nc2cc(N3CCN(C)CC3)nc(Sc3ccc(NC(=O)C4CC4)cc3)n2)n[nH]1 [Tozasertib] (partner 0.1 µM)
Method in brief: as §1

Dasatinib + Foretinib = compound: Cc1nc(Nc2ncc(C(=O)Nc3c(C)cccc3Cl)s2)cc(N2CCN(CCO)CC2)n1 [Dasatinib] + COc1cc2c(Oc3ccc(NC(=O)C4(C(=O)Nc5ccc(F)cc5)CC4)cc3F)ccnc2cc1OCCCN1CCOCC1 [Foretinib] (partner 0.25 µM)
Method in brief: as §1

Cell Line UMC-11 has a relative viability (Dasatinib + Vorinostat; first compound 0.005 µM) of 0.409, a relative viability (Dasatinib + Vorinostat; first compound 0.01581 µM) of 0.289 and a relative viability (Dasatinib + Vorinostat; first compound 0.05 µM) of 0.315. For the same cell line, the relative viability (Dasatinib + Vorinostat; first compound 0.1581 µM) was 0.203, the relative viability (Dasatinib + Vorinostat; first compound 0.5 µM) was 0.218 and the relative viability (XMD13-2 + Luminespib; first compound 0.05 µM) was 1.11. The relative viability (XMD13-2 + Luminespib; first compound 0.1581 µM) was 1.02, the relative viability (XMD13-2 + Luminespib; first compound 0.5 µM) was 0.992 and the relative viability (XMD13-2 + Luminespib; first compound 1.581 µM) was 0.961. For the same cell line, the relative viability (XMD13-2 + Luminespib; first compound 5 µM) was 0.974, the relative viability (XMD13-2 + Tozasertib; first compound 0.05 µM) was 0.188 and the relative viability (XMD13-2 + Tozasertib; first compound 0.1581 µM) was 0.197. It also gave a relative viability (XMD13-2 + Tozasertib; first compound 0.5 µM) of 0.197, a relative viability (XMD13-2 + Tozasertib; first compound 1.581 µM) of 0.204 and a relative viability (XMD13-2 + Tozasertib; first compound 5 µM) of 0.192. For the same cell line, the relative viability (Dasatinib + Foretinib; first compound 0.005 µM) was 0.912, the relative viability (Dasatinib + Foretinib; first compound 0.01581 µM) was 0.699 and the relative viability (Dasatinib + Foretinib; first compound 0.05 µM) was 0.696. The relative viability (Dasatinib + Foretinib; first compound 0.1581 µM) was 0.379 and the relative viability (Dasatinib + Foretinib; first compound 0.5 µM) was 0.276.
